For this series the following is noted: Liquid, Ebulliometric method (Recirculating still).

SMILES strings stand for the structures. ± gives the expanded uncertainty stated by the source.

As to `CCCCS` [1-butanethiol], the “vapor or sublimation pressure” value runs as follows: (328.08 K) 23.1 ± 0.4 kPa; (336.1 K) 31.4 ± 0.4 kPa; (343.41 K) 40.9 ± 0.4 kPa; (350.44 K) 52.1 ± 0.4 kPa; (355.65 K) 61.9 ± 0.4 kPa; (360.57 K) 72.6 ± 0.4 kPa. For the same molecule, the “vapor or sublimation pressure” value (364.39 K) is 81.9 ± 0.4 kPa, the “vapor or sublimation pressure” value (368.05 K) came to 91.6 ± 0.4 kPa and the “vapor or sublimation pressure” value (371.04 K) came to 100.5 ± 0.5 kPa.
In the case of `Cc1ccc(C)c(C)c1` [1,2,4-trimethylbenzene], the “vapor or sublimation pressure” value by setting is: (383.15 K) 16.9 ± 0.4 kPa; (387.74 K) 20.1 ± 0.4 kPa; (400.11 K) 30.3 ± 0.4 kPa; (408.87 K) 39.8 ± 0.4 kPa; (416.75 K) 50.3 ± 0.4 kPa; (422.84 K) 60 ± 0.4 kPa. In addition, the “vapor or sublimation pressure” value was determined as 70.3 ± 0.4 kPa (428.53 K), 80.3 ± 0.4 kPa (433.42 K), 90.4 ± 0.4 kPa (437.83 K) and 101.4 ± 0.4 kPa (442.22 K).

The record behind these values is the NIST ThermoML archive (doi:10.1016/j.fluid.2010.02.030).
